Assay results from ChEMBL document CHEMBL1138323 (J Med Chem, 2007).
Converted amounts (≈) assume the structure as drawn.

Experiments:
Rattus norvegicus [1] = species: Rattus norvegicus; assay: Protective index, ratio of TD50 for Sprague-Dawley rat by rotarod test to ED50 for Sprague-Dawley rat by scMET test; type: functional
Rattus norvegicus [2] = assay: Anticonvulsant activity in Sprague-Dawley rat by subcutaneous pentylenetetrazole test; type: functional; settings: sc
Mus musculus [3] = assay: Teratogenic effect in Swiss Webster Vancouver mouse assessed as exencephaly at 205 mg/kg, ip; type: toxicity, organism-based; set-up: dose 205 mg/kg, route intraperitoneal; settings: in vivo
Mus musculus [4] = species: Mus musculus; assay: Protective index, ratio of TD50 for Albino CF1 mouse to ED50 for Albino CF1 mouse by 6-Hz psychomotor seizure test at 44 mA current; type: functional
Rattus norvegicus [5] = species: Rattus norvegicus; assay: Protective index, ratio of TD50 for Sprague-Dawley rat by rotarod test to ED50 for Sprague-Dawley rat by MES test; type: functional
[6] = Neurotoxicity in Albino CF1 mouse by rotarod test; type: toxicity, organism-based; settings: in vivo
Mus musculus [7] = assay: Teratogenic effect in Swiss Webster Vancouver mouse assessed as exencephaly at 336 mg/kg, ip; type: toxicity, organism-based; set-up: dose 336 mg/kg, route intraperitoneal; settings: in vivo
[8] = Neurotoxicity in Sprague-Dawley rat by rotarod test; type: toxicity, organism-based; settings: in vivo
Mus musculus [9] = assay: Teratogenic effect in Swiss Webster Vancouver mouse assessed as embryo lethality at 503 mg/kg, ip; type: toxicity, organism-based; set-up: dose 503 mg/kg, route intraperitoneal; settings: in vivo
Rattus norvegicus [10] = species: Rattus norvegicus; assay: Anticonvulsant activity in Sprague-Dawley rat by maximal electroshock seizure test; type: functional
Mus musculus [11] = species: Mus musculus; assay: Protective index, ratio of TD50 for Albino CF1 mouse to ED50 for Albino CF1 mouse by 6-Hz psychomotor seizure test at 32 mA current; type: functional
Mus musculus [12] = species: Mus musculus; assay: Anticonvulsant activity in Albino CF1 mouse by 6-Hz psychomotor seizure test at 32 mA current; type: functional
[13] = Teratogenic effect in Swiss Webster Vancouver mouse assessed as embryo lethality at 336 mg/kg, ip; type: toxicity, organism-based; set-up: dose 336 mg/kg, route intraperitoneal; settings: in vivo, read-out: Activity
Mus musculus [14] = species: Mus musculus; assay: Anticonvulsant activity in Albino CF1 mouse by 6-Hz psychomotor seizure test at 44 mA current; type: functional
Mus musculus [15] = assay: Teratogenic effect in Swiss Webster Vancouver mouse assessed as exencephaly at 503 mg/kg, ip; type: toxicity, organism-based; set-up: dose 503 mg/kg, route intraperitoneal; settings: in vivo
Mus musculus [16] = assay: Teratogenic effect in Swiss Webster Vancouver mouse assessed as embryo lethality at 205 mg/kg, ip; type: toxicity, organism-based; set-up: dose 205 mg/kg, route intraperitoneal; settings: in vivo
Mus musculus [17] = assay: Teratogenic effect in Swiss Webster Vancouver mouse assessed as exencephaly at 167 mg/kg, ip; type: toxicity, organism-based; set-up: dose 167 mg/kg, route intraperitoneal; settings: in vivo
Mus musculus [18] = assay: Induction of lethality in Swiss Webster Vancouver mouse dams at 3.6 mmol/kg, ip after 24 hrs; type: organism-based; settings: in vivo
Mus musculus [19] = assay: Teratogenic effect in Swiss Webster Vancouver mouse assessed as embryo lethality at 167 mg/kg, ip; type: toxicity, organism-based; set-up: dose 167 mg/kg, route intraperitoneal; settings: in vivo
[20] = Solubility in water; type: physicochemical
Mus musculus [21] = assay: Teratogenic effect in Swiss Webster Vancouver mouse assessed as embryo lethality at 261 mg/kg, ip; type: toxicity, organism-based; set-up: dose 261 mg/kg, route intraperitoneal; settings: in vivo
Mus musculus [22] = assay: Teratogenic effect in Swiss Webster Vancouver mouse assessed as exencephaly at 261 mg/kg, ip; type: toxicity, organism-based; set-up: dose 261 mg/kg, route intraperitoneal; settings: in vivo
Mus musculus [23] = assay: Teratogenic effect in Swiss Webster Vancouver mouse assessed as exencephaly at 520 mg/kg, ip; type: toxicity, organism-based; set-up: dose 520 mg/kg, route intraperitoneal; settings: in vivo
Mus musculus [24] = assay: Teratogenic effect in Swiss Webster Vancouver mouse assessed as embryo lethality at 520 mg/kg, ip; type: toxicity, organism-based; set-up: dose 520 mg/kg, route intraperitoneal; settings: in vivo
Mus musculus [25] = assay: Induction of lethality in Swiss Webster Vancouver mouse dams at 2.7 mmol/kg, ip after 24 hrs; type: organism-based; settings: in vivo
Mus musculus [26] = assay: Induction of lethality in Swiss Webster Vancouver mouse dams at 1.8 mmol/kg, ip after 24 hrs; type: organism-based; settings: in vivo

solubility [20] [µg/mL] | Compound | Ratio TD50/ED50 (Rattus norvegicus [1]) | ED50 (Rattus norvegicus [2]) [mg/kg] | Ratio TD50/ED50 (Mus musculus [4]) | Ratio TD50/ED50 (Rattus norvegicus [5]) | TD50 [6] [mg/kg] | TD50 [8] [mg/kg] | ED50 (Rattus norvegicus [10]) [mg/kg] | Ratio TD50/ED50 (Mus musculus [11]) | ED50 (Mus musculus [12]) [mg/kg] | ED50 (Mus musculus [14]) [mg/kg] | also measured
– | CCC[C@H](C(=O)NC(N)=O)C(C)C | 3.2 | 37 | <4 | 6.5 | 100 | 118 | 18 | <6.5 | 46 | 75 | Activity (Mus musculus [3]): 0.8%; Activity (Mus musculus [7]): 5.7%; Activity (Mus musculus [9]): 40.7%; mortality [13]: 10.2%; Activity (Mus musculus [15]): 4.3%; Activity (Mus musculus [16]): 6.8%
– | CCC[C@H](C(N)=O)C(C)C | 2.2 | 38 | – | 1.3 | – | 83 | 63 | – | – | – | –
< 50 | CCCCCCCC(=O)NC(N)=O | 1.2 | > 300 | – | 1.4 | – | > 300 | > 300 | – | – | – | –
270 (≈ 1450 µM) | CC(C)C(C(=O)NC(N)=O)C(C)C | 3.5 | – | <2 | 1.7 | > 50 | – | – | <2.3 | 43 | 49 | –
– | CCC[C@@H](C(=O)NC(N)=O)C(C)C | 5.6 | 22 | 2.1 | 3.4 | 118 | 124 | 36 | 2.7 | 43 | 56 | Activity (Mus musculus [3]): 0%; Activity (Mus musculus [7]): 15.4%; Activity (Mus musculus [9]): 65.7%; mortality [13]: 54.4%; Activity (Mus musculus [15]): 17.5%; Activity (Mus musculus [16]): 7.1%
– | CC(C)C(C(N)=O)C(C)C | 1.2 | 60 | – | 1.4 | – | 72 | 51 | – | > 100 | > 100 | –
– | CCC[C@@H](C(N)=O)C(C)C | 3.7 | 22 | – | 1.7 | – | 82 | 47 | – | – | – | –
– | CCC[C@@H](C(=O)O)C(C)C | – | – | – | – | – | – | – | – | – | – | Activity (Mus musculus [23]): 0%; Activity (Mus musculus [24]): 4.3%
– | CCC[C@H](C(=O)O)C(C)C | – | – | – | – | – | – | – | – | – | – | Activity (Mus musculus [23]): 0%; Activity (Mus musculus [24]): 5.8%
– | CCCC(C(N)=O)C(C)C (racemic) | 3.2 | 27 | – | 1.7 | – | 87 | 50 | – | – | – | –
– | CCCC(C(=O)O)C(C)C (racemic) | – | – | – | – | > 300 | – | – | >2 | 149 | – | Activity (Mus musculus [23]): 0%; Activity (Mus musculus [24]): 5.5%
1300 (≈ 9010 µM) | CCCC(CCC)C(=O)O [VALPROIC ACID] | – | – | – | – | – | – | – | – | – | – | –
3700 (≈ 25800 µM) | CCCC(CCC)C(N)=O [VALPROMIDE] | – | – | – | – | – | – | – | – | – | – | –

Compound | solubility [20] [µg/mL] | Ratio TD50/ED50 (Rattus norvegicus [1]) | ED50 (Rattus norvegicus [2]) [mg/kg] | Ratio TD50/ED50 (Mus musculus [4]) | Ratio TD50/ED50 (Rattus norvegicus [5]) | TD50 [6] [mg/kg] | TD50 [8] [mg/kg] | ED50 (Rattus norvegicus [10]) [mg/kg] | Ratio TD50/ED50 (Mus musculus [11]) | ED50 (Mus musculus [12]) [mg/kg] | ED50 (Mus musculus [14]) [mg/kg] | also measured
CCCC(CCC)C(=O)NC(N)=O | 120 (≈ 644 µM) | 3 | 77 | – | 4.3 | > 50 | – | 54 | <1.7 | 58 | 105 | Activity (Mus musculus [17]): 0.9%; Activity (Mus musculus [18]): Toxic; Activity (Mus musculus [19]): 12.9%; Activity (Mus musculus [21]): 41.2%; Activity (Mus musculus [22]): 13.7%
CCCC(C(=O)NC(N)=O)C(C)C (racemic) | 130 (≈ 698 µM) | 2.1 | – | <1.4 | 5.9 | 50 | 95 | – | <2 | 42 | – | –
CCC(C)C(CC)C(=O)NC(N)=O (configuration not stated) [CAPURIDE] | 280 (≈ 1500 µM) | 6.9 | – | <2.1 | 4 | 50 | 97 | – | <4.7 | – | – | Activity (Mus musculus [3]): 2.7%; Activity (Mus musculus [25]): Toxic; Activity (Mus musculus [26]): Toxic; Activity (Mus musculus [16]): 39%
